T1: AtGTR1 (Arabidopsis thaliana, UniProt Q944G5)
T1 construct: gene NPF2.10; full-length synthesized cDNA with C-terminal 8-His-tag in pESC-URA; expressed in S. cerevisiae FGY217; theoretical 68 kDa; homodimer after purification
T1 sequence (Q944G5 31-636): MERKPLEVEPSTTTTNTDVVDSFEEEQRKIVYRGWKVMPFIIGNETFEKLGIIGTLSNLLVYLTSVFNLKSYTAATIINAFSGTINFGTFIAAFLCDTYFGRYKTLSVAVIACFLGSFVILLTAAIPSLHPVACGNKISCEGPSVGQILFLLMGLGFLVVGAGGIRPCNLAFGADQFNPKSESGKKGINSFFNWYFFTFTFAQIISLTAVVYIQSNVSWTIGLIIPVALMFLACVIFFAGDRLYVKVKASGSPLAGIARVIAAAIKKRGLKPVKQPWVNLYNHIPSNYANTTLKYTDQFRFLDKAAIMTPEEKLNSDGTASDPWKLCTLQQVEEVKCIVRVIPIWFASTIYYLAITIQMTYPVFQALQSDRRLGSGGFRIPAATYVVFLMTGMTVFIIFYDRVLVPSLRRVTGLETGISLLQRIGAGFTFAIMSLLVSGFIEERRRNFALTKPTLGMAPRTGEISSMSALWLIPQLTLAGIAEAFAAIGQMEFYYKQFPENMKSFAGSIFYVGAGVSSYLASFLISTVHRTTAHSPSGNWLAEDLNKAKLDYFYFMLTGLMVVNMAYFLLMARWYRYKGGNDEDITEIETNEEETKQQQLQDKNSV


How the values were obtained:
AtGTR1 = target: T1, AtGTR1; test: inhibition of glucotropaeolin uptake in yeast, RP-HPLC; assay type: cell-based
[1] = substrate: O=S(=O)(O)O/N=C(/Cc1c[nH]c2ccccc12)S[C@@H]1O[C@H](CO)[C@@H](O)[C@H](O)[C@H]1O; test: yeast uptake assay, RP-HPLC of desulfo-glucosinolate; assay type: cell-based, Arabidopsis thaliana; conditions: 15 min uptake, 2.5-320 μM substrate, pH 5.5, 30 °C, proton-coupled, apparent
[2] = substrate: O=S(=O)(O)O/N=C(\Cc1ccccc1)S[C@@H]1O[C@H](CO)[C@@H](O)[C@H](O)[C@H]1O; test: as above; assay type: cell-based, Arabidopsis thaliana; conditions: 15 min uptake, 2.5-320 μM substrate, pH 5.5, 30 °C, proton-coupled, apparent

Row | IC50 (AtGTR1) [µM] | Molecule | Km [1] [µM] | Km [2] [µM]
1 | 762 ± 48.1 | O=C(O)Cc1c[nH]c2ccccc12 [IAA, 3-indoleacetic acid] | – | –
2 | 938 ± 114 | CC/C=C\C[C@H]1C(=O)CC[C@@H]1CC(=O)O [JA, jasmonic acid] | – | –
3 | 630 ± 47.5 | O=C(O)c1ccccc1O [SA, salicylic acid] | – | –
4 | – | AtGTR1 (Arabidopsis thaliana) (protein, full-length synthesized cDNA with C-terminal 8-His-tag in pESC-URA; expressed in S. cerevisiae FGY217; theoretical 68 kDa; homodimer after purification) MERKPLEVEPSTTTTNTDVVDSFEEEQRKIVYRGWKVMPFIIGNETFEKLGIIGTLSNLLVYLTSVFNLKSYTAATIINAFSGTINFGTFIAAFLCDTYFGRYKTLSVAVIACFLGSFVILLTAAIPSLHPVACGNKISCEGPSVGQILFLLMGLGFLVVGAGGIRPCNLAFGADQFNPKSESGKKGINSFFNWYFFTFTFAQIISLTAVVYIQSNVSWTIGLIIPVALMFLACVIFFAGDRLYVKVKASGSPLAGIARVIAAAIKKRGLKPVKQPWVNLYNHIPSNYANTTLKYTDQFRFLDKAAIMTPEEKLNSDGTASDPWKLCTLQQVEEVKCIVRVIPIWFASTIYYLAITIQMTYPVFQALQSDRRLGSGGFRIPAATYVVFLMTGMTVFIIFYDRVLVPSLRRVTGLETGISLLQRIGAGFTFAIMSLLVSGFIEERRRNFALTKPTLGMAPRTGEISSMSALWLIPQLTLAGIAEAFAAIGQMEFYYKQFPENMKSFAGSIFYVGAGVSSYLASFLISTVHRTTAHSPSGNWLAEDLNKAKLDYFYFMLTGLMVVNMAYFLLMARWYRYKGGNDEDITEIETNEEETKQQQLQDKNSV | 8.2 ± 0.60 | 13.6 ± 1.55

Reference: article PMC8948214, “Transport efficiency of AtGTR1 dependents on the hydrophobicity of transported glucosinolates” (Scientific Reports, 2022)
